Data as given in ChEMBL document CHEMBL5365481, “Design, Synthesis, and Activity Evaluation of Novel Dual-Target Inhibitors with Antifungal and Immunoregulatory Properties” (J Med Chem, 2023).
Values after ≈ are worked out from the molar mass of the structure shown. Active and inactive are the calls of the source. The calls are words filed in the database; no cut-off is given here.

Experiments:
Candida albicans [1] = assay: In vivo antifungal activity against Candida albicans ATCC SC5314 infected in BALB/c mouse assessed as decrease in PD-L1 expression level at 10 ug, ip for 14 days by immunohistochemical analysis; assay type: functional, organism-based; settings: dose 10.0 µg, time 14.0 day
[2] = biological target: Programmed cell death 1 ligand 1 (Homo sapiens, UniProt Q9NZQ7); assay: Binding affinity to PD-L1 (unknown origin) assessed as dissociation constant by SPR analysis
[3] = biological target: Programmed cell death protein 1/Programmed cell death 1 ligand 1 (Homo sapiens, UniProt Q9NZQ7); assay: Inhibition of PD-1/PD-L1 interaction (unknown origin) incubated for 15 mins by ELISA; assay type: protein-complex assay
Candida albicans [4] = assay: In vivo antifungal activity against Candida albicans ATCC SC5314 infected in BALB/c mouse assessed as decrease in NLRP3 expression level at 10 ug, ip for 14 days by Western blot analysis; assay type: functional, organism-based; settings: dose 10.0 µg, time 14.0 day
Candida albicans [5] = assay: Induction of mitochondrial membrane depolarization in Candida albicans ATCC SC5314 assessed as normal cells at 1 microM/ml incubated for 24 hrs by JC-1 staining based flow cytometry assay (reference value: 94.4 +/- 1.15%); assay type: functional
Candida albicans [6] = assay: Induction of apoptosis in Candida albicans ATCC SC5314 assessed as early apoptotic cells at 1 microM/ml incubated for 48 hrs by Hoechst 33258/PI staining based flow cytometry (Rvb= 5.1 +/- 0.3%); assay type: functional
Candida albicans [7] = assay: Induction of apoptosis in Candida albicans ATCC SC5314 assessed as increase in blue fluorescence intensity at 1 microM/ml incubated for 48 hrs by Hoechst 33258/PI staining based fluorescence microscopy; assay type: functional, organism-based
Cell membrane [8] = assay: Induction of cell membrane integrity disruption in Candida albicans ATCC SC5314 assessed as disappearance of nuclei at 1 microM/ml incubated for 48 to 72 hrs by TEM analysis; assay type: subcellular; settings: time 48-72 hrs
Candida albicans [9] = assay: In vivo antifungal activity against Candida albicans ATCC SC5314 infected in BALB/c mouse assessed as fold increase in CD3+ expression level in T cells at 10 ug, ip for 14 days by immunohistochemical analysis; assay type: functional, T-cell; settings: dose 10 µg, time 14 day
Cell membrane [10] = assay: Induction of cell membrane integrity disruption in Candida albicans ATCC SC5314 assessed as edema vacuoles at 1 microM/ml incubated for 48 to 72 hrs by TEM analysis; assay type: subcellular; settings: time 48-72 hrs
Candida albicans [11] = assay: In vivo antifungal activity against Candida albicans ATCC SC5314 infected in BALB/c mouse assessed as decrease in PD-L1 expression level at 10 ug, ip for 14 days by Western blot analysis; assay type: functional, organism-based; settings: dose 10.0 µg, time 14.0 day
[12] = biological target: Lanosterol 14-alpha demethylase (Candida albicans (strain SC5314 / ATCC MYA-2876) (Yeast), UniProt P10613); assay: Inhibition of Candida albicans ATCC SC5314 CYP51 assessed as eburicol content at 4 ug/ml measured after 16 hrs by GC-MS analysis (Rvb= 3.47%); design: scale not given: the % may be the effect or the level left; settings: at 4 µg/mL
Candida albicans [13] = assay: In vivo antifungal activity against Candida albicans ATCC SC5314 infected in BALB/c mouse assessed as decrease in COX2 expression level at 10 ug, ip for 14 days by immunohistochemical analysis; assay type: functional, organism-based; settings: dose 10.0 µg, time 14.0 day
[14] = Toxicity in BALB/c mouse infected with Candida albicans ATCC SC5314 assessed as morphological changes in heart at 10 ug, ip for 14 days by H and E staining based microscopy; assay type: organism-based; settings: in vivo, 336 h, dose 10 µg, time 14 day
Cell membrane [15] = assay: Induction of cell membrane integrity disruption in Candida albicans ATCC SC5314 assessed as decrease in cell wall thickness at 1 microM/ml incubated for 48 to 72 hrs by TEM analysis; assay type: subcellular; settings: time 48-72 hrs
Cell membrane [16] = assay: Induction of cell membrane integrity disruption in Candida albicans ATCC SC5314 assessed as reduced cytoplasmic density at 1 microM/ml incubated for 48 to 72 hrs by TEM analysis; assay type: subcellular; settings: time 48-72 hrs
Candida albicans [17] = assay: In vivo antifungal activity against Candida albicans ATCC SC5314 infected in BALB/c mouse assessed as decrease in IFN-gamma expression level at 10 ug, ip for 14 days by Western blot analysis; assay type: functional, organism-based; settings: dose 10.0 µg, time 14.0 day
Candida albicans [18] = assay: In vivo antifungal activity against Candida albicans ATCC SC5314 infected in BALB/c mouse assessed as fold increase in CD8+ expression level in T cells at 10 ug, ip for 14 days by immunohistochemical analysis; assay type: functional
Candida albicans [19] = assay: Induction of apoptosis in Candida albicans ATCC SC5314 assessed as necrotic cells at 1 microM/ml incubated for 48 hrs by Hoechst 33258/PI staining based flow cytometry (Rvb= 0.03 +/- 0.01%); assay type: functional
Candida albicans [20] = assay: Antifungal activity against fluconazole-resistant Candida albicans 901 assessed as inhibition of fungal growth incubated for 72 hrs by CLSI based liquid medium microdilution method; assay type: functional
[21] = Toxicity in BALB/c mouse infected with Candida albicans ATCC SC5314 assessed as morphological changes in kidney at 10 ug, ip for 14 days by H and E staining based microscopy; assay type: organism-based; settings: in vivo, 336 h, dose 10 µg, time 14 day
Candida albicans [22] = assay: Induction of apoptosis in Candida albicans ATCC SC5314 assessed as normal cells at 1 microM/ml incubated for 48 hrs by Hoechst 33258/PI staining based flow cytometry (Rvb= 94.8 +/- 0.3%); assay type: functional
Candida albicans [23] = assay: In vivo antifungal activity against Candida albicans ATCC SC5314 infected in BALB/c mouse assessed as decrease in COX2 expression level at 10 ug, ip for 14 days by Western blot analysis; assay type: functional, organism-based; settings: dose 10.0 µg, time 14.0 day
[24] = Toxicity in BALB/c mouse infected with Candida albicans ATCC SC5314 assessed as morphological changes in liver at 10 ug, ip for 14 days in presence of Biphenyl isopropyl ester by H and E staining based microscopy; assay type: organism-based; settings: in vivo, 336 h, dose 10 µg, time 14 day
Candida albicans [25] = assay: In vivo antifungal activity against Candida albicans ATCC SC5314 infected in BALB/c mouse assessed as increase in body weight at 10 ug, ip for 14 days in presence of Biphenyl isopropyl ester; assay type: functional, organism-based; settings: dose 10.0 µg, time 14.0 day
Candida albicans [26] = assay: In vivo antifungal activity against Candida albicans ATCC SC5314 infected in BALB/c mouse assessed as decrease in COX2 expression level at 10 ug, ip for 14 days in presence of Biphenyl isopropyl ester by immunohistochemical analysis; assay type: functional, organism-based; settings: dose 10.0 µg, time 14.0 day
[27] = Toxicity in BALB/c mouse infected with Candida albicans ATCC SC5314 assessed as morphological changes in kidney at 10 ug, ip for 14 days in presence of Biphenyl isopropyl ester by H and E staining based microscopy; assay type: organism-based; settings: in vivo, 336 h, dose 10 µg, time 14 day
Candida albicans [28] = assay: In vivo antifungal activity against Candida albicans ATCC SC5314 infected in BALB/c mouse assessed as shrinkage in infected region at 10 ug, ip for 14 days in presence of Biphenyl isopropyl ester; assay type: functional, organism-based; settings: dose 10.0 µg, time 14.0 day
Candida albicans [29] = assay: In vivo antifungal activity against Candida albicans ATCC SC5314 infected in BALB/c mouse assessed as decrease in IFN-gamma expression level at 10 ug, ip for 14 days in presence of Biphenyl isopropyl ester by Western blot analysis; assay type: functional, organism-based; settings: dose 10.0 µg, time 14.0 day
Candida albicans [30] = assay: In vivo antifungal activity against Candida albicans ATCC SC5314 infected in BALB/c mouse assessed as decrease in number of exogenous fungal cells at 10 ug, ip for 14 days in presence of Biphenyl isopropyl ester by H and E staining based microscopy; assay type: functional, organism-based; settings: dose 10.0 µg, time 14.0 day

Lanosterol 14-alpha demethylase, sequence (P10613 whole entry): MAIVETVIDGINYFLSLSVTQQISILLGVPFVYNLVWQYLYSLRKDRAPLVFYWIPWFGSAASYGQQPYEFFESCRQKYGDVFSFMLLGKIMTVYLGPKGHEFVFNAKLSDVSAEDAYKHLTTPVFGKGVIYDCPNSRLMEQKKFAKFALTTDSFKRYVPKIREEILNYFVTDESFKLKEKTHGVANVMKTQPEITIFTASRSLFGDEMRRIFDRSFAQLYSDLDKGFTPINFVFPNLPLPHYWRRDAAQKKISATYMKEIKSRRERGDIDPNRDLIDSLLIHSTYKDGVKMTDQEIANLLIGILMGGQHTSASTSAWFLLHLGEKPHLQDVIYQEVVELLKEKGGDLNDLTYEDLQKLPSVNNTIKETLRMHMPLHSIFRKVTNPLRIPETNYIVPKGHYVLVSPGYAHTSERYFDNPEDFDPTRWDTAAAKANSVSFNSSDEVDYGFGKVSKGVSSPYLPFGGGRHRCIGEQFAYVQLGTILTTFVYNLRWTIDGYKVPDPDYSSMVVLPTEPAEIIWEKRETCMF
Programmed cell death 1 ligand 1, sequence (Q9NZQ7 whole entry): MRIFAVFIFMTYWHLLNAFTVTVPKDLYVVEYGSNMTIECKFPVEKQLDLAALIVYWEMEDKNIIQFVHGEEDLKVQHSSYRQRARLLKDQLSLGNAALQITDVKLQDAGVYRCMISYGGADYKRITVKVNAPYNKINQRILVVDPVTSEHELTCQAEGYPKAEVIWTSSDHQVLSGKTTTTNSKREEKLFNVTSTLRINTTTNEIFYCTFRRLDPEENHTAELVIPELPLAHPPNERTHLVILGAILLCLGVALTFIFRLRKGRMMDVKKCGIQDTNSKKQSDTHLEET
Programmed cell death protein 1/Programmed cell death 1 ligand 1, sequence (Q15116 whole entry): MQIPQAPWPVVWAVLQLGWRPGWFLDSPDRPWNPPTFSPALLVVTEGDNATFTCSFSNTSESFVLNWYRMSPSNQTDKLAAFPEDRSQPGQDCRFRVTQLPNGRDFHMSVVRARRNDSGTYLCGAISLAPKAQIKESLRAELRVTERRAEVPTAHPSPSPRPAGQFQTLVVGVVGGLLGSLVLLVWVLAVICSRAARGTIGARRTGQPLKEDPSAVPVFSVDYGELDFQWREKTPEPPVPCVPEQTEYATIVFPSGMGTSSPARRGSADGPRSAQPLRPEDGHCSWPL
Programmed cell death protein 1/Programmed cell death 1 ligand 1, sequence (Q9NZQ7 whole entry): as the sequence (Q9NZQ7 whole entry) above

In the case of `CC(=O)c1ccc(C(=O)N2CCC(NC(=O)c3nc(-n4cncn4)c4ccccc4n3)CC2)cc1`, the Activity (Candida albicans [1]) is reported as “Active”, the Kd [2] is reported as 65.5 nM and the IC50 [3] is reported as 17 nM. The Activity (Candida albicans [4]) was “Active”, the Activity (Candida albicans [5]) was 42.6% and the Activity (Candida albicans [6]) was 57.9%. For the same compound, the Activity (Candida albicans [7]) was “Active”, the Activity (Cell membrane [8]) was “Active” and the “fold change (FC)” value (Candida albicans [9]) was 1.46. For the same compound, the Activity (Cell membrane [10]) was “Active”, the Activity (Candida albicans [11]) was “Active” and the Activity [12] was 43.15%. The Activity (Candida albicans [13]) was “Active”, the Activity [14] was “Non-Toxic” and the Activity (Cell membrane [15]) was “Active”. For the same compound, the Activity (Cell membrane [16]) was “Active”, the Activity (Candida albicans [17]) was “Active” and the Activity (Candida albicans [18]; T-cell, dose 10.0 µg, time 14.0 day) was “Active”. For the same compound, the Activity (Candida albicans [19]) was 0.02%, the MIC50 (Candida albicans [20]) was 4 µg/mL (≈ 8.52 µM) and the Activity [21] was “Non-Toxic”. For the same compound, the Activity (Candida albicans [22]) was 42% and the Activity (Candida albicans [23]) was “Active”.

With `CC(C)c1ccc(C(=O)N2CCC(NC(=O)c3nc(-n4ccnc4)c4ccccc4n3)CC2)cc1` the Activity (Candida albicans [1]) was “Active”, the Kd [2] was 60.7 nM and the IC50 [3] was 39 nM. For the same compound, the Activity (Candida albicans [4]) was “Active”, the Activity (Candida albicans [5]) was 52.3% and the Activity (Candida albicans [6]) was 54.5%. For the same compound, the Activity (Candida albicans [7]) was “Active”, the “fold change (FC)” value (Candida albicans [9]) was 1.46 and the Activity (Candida albicans [11]) was “Active”. For the same compound, the Activity [12] was 45.04%, the Activity (Candida albicans [13]) was “Active” and the Activity [14] was “Non-Toxic”. For the same compound, the Activity (Candida albicans [17]) was “Active”, the “fold change (FC)” value (Candida albicans [18]; dose 10 µg, time 14 day) was 1.46 and the Activity (Candida albicans [19]) was 0.03%. For the same compound, the MIC50 (Candida albicans [20]) was 4 µg/mL (≈ 8.54 µM), the Activity [21] was “Non-Toxic” and the Activity (Candida albicans [22]) was 45.3%. For the same compound, the Activity (Candida albicans [23]) was “Active”.

In the case of `OC(Cn1cncn1)(Cn1cncn1)c1ccc(F)cc1F` [FLUCONAZOLE], the Activity [24] is reported as “Non-Toxic”, the Activity (Candida albicans [25]) is reported as “Active” and the Activity (Candida albicans [4]) is reported as “Active”. For the same compound, the Activity (Candida albicans [5]) was 65.4%, the Activity (Candida albicans [6]) was 55.3% and the Activity (Candida albicans [7]) was “Active”. For the same compound, the Activity (Candida albicans [26]) was “Active”, the Activity [27] was “Non-Toxic” and the Activity (Candida albicans [11]) was “Active”. The Activity [12] was 46.52%, the Activity (Candida albicans [28]) was “Active” and the Activity (Candida albicans [13]) was “Active”. For the same compound, the Activity (Candida albicans [29]) was “Active”, the Activity [14] was “Non-Toxic” and the Activity (Candida albicans [30]) was “Active”. For the same compound, the Activity (Candida albicans [17]) was “Active”, the Activity (Candida albicans [19]) was 0.02% and the MIC50 (Candida albicans [20]) was > 8 µg/mL. For the same compound, the Activity [21] was “Non-Toxic”, the Activity (Candida albicans [22]) was 44.6% and the Activity (Candida albicans [23]) was “Active”.
